Source: patent US20100055799A1, “TEST AGENT FOR DIAGNOSING DYSPEPSIA” (priority 2006, published 2010)
Like-named read-outs stand apart in the source and are kept apart here. Values belong to the compound of their own block, whether it stands above or below them.

Tests used:
[1] = format: physicochemical
[2] = 2-13C uracil concentration in plasma of patients suspected of post-operative gastroparesis; format: in vivo, human; details: 20 minutes after oral 100 mg 2-13C uracil (Example 2 granules); patients with decreased or insufficient gastric-emptying function versus normal type
[3] = system: gastric-emptying function; test: 13C breath test in delayed gastric-emptying model rats (propantheline pretreatment); format: in vivo, rat; details: propantheline 1 mg/kg i.v. 5 min before 10 mg/kg oral 2-13C uracil; expired air 5-60 min
Experimental: “Propantheline”, an anticholinergic agent, was intravenously administered to rats (female, Wister rat, 8 weeks old: n=3) in such an amount of 1 mg/kg to obtain model animals whose gastric-emptying function was decreased (a delayed gastric-emptying model). […] The expired air samples were collected over time, and the ^13CO2 concentration in each expired air sample was measured.

Solubility ([1]; pH 2): 0.28 w/v %
Solubility ([1]; pH 4): 0.28 w/v %
Solubility ([1]; pH 6): 0.28 w/v %
Solubility ([1]; pH 8): 0.29 w/v %
2-13C uracil concentrations in plasma [2]: lowered
Structure (SMILES): O=c1cc[nH][13c](=O)[nH]1 [2-^13C uracil]

Structure (SMILES): CC(C)[N+](C)(CCOC(=O)C1c2ccccc2Oc2ccccc21)C(C)C [propantheline, Propantheline]
13CO2 concentration (Δ13C value) excreted in expired air versus normal rats [3]: significantly lower

change of solubility depending on the pH of the solution ([1]; pH 2): almost unchanged
Structure (SMILES): O=c1cc[nH]c(=O)[nH]1 [uracil]
